Measured values from US5618815A, “1,9-bridged thiazolo[3,2-a]quinoline derivatives” (Bayer Aktiengesellschaft, priority 1994, dated 1997).
Values after ≈ are worked out from the molar mass of the structure shown.

Key:
Assay type in all cases: cell-based
Staphylococcus aureus = test: MIC by serial dilution (agar), Staphylococcus aureus; details: 37° C., about 20 hours
Procedure: (§1) The minimum inhibitory concentrations (MICs) of the compounds according to the invention were determined by serial dilution methods on Iso-Sensitest agar (Oxoid). For each test substance a series of agar plates was, prepared, which plates contained decreasing concentrations of the active compound, with twofold dilution in each case. The agar plates were inoculated with a Multipoint inoculator (Denley). Inoculation was carried out using overnight cultures of the pathogens, which had been diluted beforehand so that each inoculation point contained about 10^4 colony-forming particles. The inoculated agar plates were incubated at 37° C., and the growth of the microorganisms was read off after about 20 hours. The MIC (μg/ml) indicates the lowest concentration of active compound at which no growth-could be perceived with the naked eye. In the table below, the MICs of some of the compounds according to the invention are listed.

Enterococcus faecalis = test: MIC by serial dilution (agar), Enterococcus faecalis; details: 20 h, 37° C., about 20 hours
Procedure: as §1

Micrococcus luteus = test: MIC by serial dilution (agar), Micrococcus luteus; details: strain 9341, Iso-Sensitest agar, 37° C., about 20 hours
Procedure: as §1

[1] = 20 h, strain 133, Iso-Sensitest agar
[2] = 20 h, strain ICB 25701, Iso-Sensitest agar
[3] = 20 h, strain ICB 25768, Iso-Sensitest agar
[4] = ATCC29123, 20 h, strain ATCC 29123, Iso-Sensitest agar
[5] = strain 27 101, Iso-Sensitest agar
[6] = strain 9790, Iso-Sensitest agar

Structure (SMILES): CNC1C=CCC2CN(c3c(F)cc4c(=O)c(C(=O)O)c5scc6n5c4c3N(C)C6)CC21 (stereo not drawn) [Example 3, 7-Fluoro-8-(2-methylamino-8-azabicyclo[4.3.0]non-3-en-8-yl)-5-oxo-9,1-[(N-methylimino)-methano]-5H-thiazolo-[3,2-a]quinoline-4-carboxylic acid]
- MIC (Staphylococcus aureus; [1]): ≤ 0.015 µg/mL
- MIC (Staphylococcus aureus; [2]): 0.125 µg/mL (≈ 0.275 µM)
- MIC (Staphylococcus aureus; [3]): 0.25 µg/mL (≈ 0.55 µM)
- MIC (Staphylococcus aureus; [4]): ≤ 0.015 µg/mL
- MIC (Enterococcus faecalis; [5]): 0.125 µg/mL (≈ 0.275 µM)
- MIC (Enterococcus faecalis; [6]): 0.125 µg/mL (≈ 0.275 µM)
- MIC (Micrococcus luteus): 0.125 µg/mL (≈ 0.275 µM)

Structure (SMILES): CC1C=CC(N)C2CN(c3c(F)cc4c(=O)c(C(=O)O)c5scc6n5c4c3N(C)C6)CC12 (stereo not drawn) [Example 5, 8-(2-Amino-5-methyl-8-azabicyclo[4.3.0]non-3-en-8-yl)-7-fluoro-5-oxo-9,1-[(N-methylimino)methano]-5H-thiazolo-[3,2-a]quinoline-4-carboxylic acid]
- MIC (Staphylococcus aureus; [1]): ≤ 0.015 µg/mL
- MIC (Staphylococcus aureus; [2]): 0.125 µg/mL (≈ 0.275 µM)
- MIC (Staphylococcus aureus; [3]): 0.5 µg/mL (≈ 1.1 µM)
- MIC (Staphylococcus aureus; [4]): ≤ 0.015 µg/mL
- MIC (Enterococcus faecalis; [5]): 0.062 µg/mL (≈ 0.136 µM)
- MIC (Enterococcus faecalis; [6]): 0.062 µg/mL (≈ 0.136 µM)
- MIC (Micrococcus luteus): 0.062 µg/mL (≈ 0.136 µM)

Structure (SMILES): CNCC1C=CCC2CN(c3c(F)cc4c(=O)c(C(=O)O)c5scc6n5c4c3N(C)C6)CC12 (stereo not drawn) [Example 7, 7-Fluoro-8-(2-methylamonomethyl-8-azabicyclo[4.3.0]non-3-en-8-yl)-5-oxo-9,1-[(N-methylimino)-methano]-5H-thiazolo-[3,2-a]quinoline-4-carboxylic acid]
- MIC (Staphylococcus aureus; [1]): ≤ 0.015 µg/mL
- MIC (Staphylococcus aureus; [2]): 0.25 µg/mL (≈ 0.534 µM)
- MIC (Staphylococcus aureus; [3]): 1 µg/mL (≈ 2.13 µM)
- MIC (Staphylococcus aureus; [4]): ≤ 0.015 µg/mL
- MIC (Enterococcus faecalis; [5]): 0.126 µg/mL (≈ 0.269 µM)
- MIC (Enterococcus faecalis; [6]): 0.125 µg/mL (≈ 0.267 µM)
- MIC (Micrococcus luteus): 0.25 µg/mL (≈ 0.534 µM)
